Data from publication PMC11469493, “Luteolin target HSPB1 regulates endothelial cell ferroptosis to protect against radiation vascular injury” (PLOS ONE, 2024).

Experiments:
HSPB1 [1] = molecular target: T1, HSPB1 (Homo sapiens, UniProt P04792); experiment: SPR (Reichert 4SPR, immobilised HSPB1); format: binding; design: protein immobilised by EDC/NHS on dextran SPR chip; settings: read-out: affinity
HSPB1 [2] = molecular target: T1, HSPB1; experiment: DARTS with Western blot (protection from protease); format: biochemical; design: endogenous protein in lysate, detected by Western blot after protease digestion (DARTS); settings: cell lysate, room temperature, 20 min with luteolin, protease digestion 15 min

T1 sequence (P04792 whole entry): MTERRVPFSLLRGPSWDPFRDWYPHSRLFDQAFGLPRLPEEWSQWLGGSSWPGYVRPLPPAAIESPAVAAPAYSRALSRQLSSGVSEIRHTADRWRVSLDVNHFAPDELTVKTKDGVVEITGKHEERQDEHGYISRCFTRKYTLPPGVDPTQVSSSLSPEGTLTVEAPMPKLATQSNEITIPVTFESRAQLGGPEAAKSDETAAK

For O=c1cc(-c2ccc(O)c(O)c2)oc2cc(O)cc(O)c12 [luteolin], the Kd (HSPB1 [1]) was 23.7 µM and the “DARTS with Western blot (protection from protease)” value (HSPB1 [2]) was “addition of luteolin under the same protease concentration conditions reduced the hydrolysis of HSPB1”.
